Data reported in paper PMC10146186, “Modulation of the Cytotoxic Properties of Pd(II) Complexes Based on Functionalized Carboxamides Featuring Labile Phosphoryl Coordination Sites” (Pharmaceutics, 2023).
Like-named read-outs stand apart in the source and are kept apart here.

Assays:
[1] = tested on: K562/iS9 resistant chronic myelogenous leukemia cells; test: MTT cytotoxicity assay, K562/iS9; type: cell-based, human; details: read-out: IC50 ± SD, K562/iS9
Protocol: (§1) To characterize the antitumor potential of the resulting Pd(II) pincer complexes, their cytotoxicities against a panel of human solid and hematopoietic cancer cell lines, including colorectal carcinoma (HCT116), breast cancer (MCF7), prostate adenocarcinoma (PC3), glioblastoma (U251), ovarian adenocarcinoma (Scov3), chronic myelogenous leukemia (K562) and its resistant subclone (K562/iS9), multiple plasmacytoma (AMO1), and acute lymphoblastic leukemia (H9) cell lineages, were evaluated using the conventional MTT assay. […] For comparison, the inhibitory effects of the compounds explored on noncancerous human embryonic kidney cells HEK293 as well as transformed breast cells HBL100 and their doxorubicin-resistant analogs HBL100/Dox were also investigated under the same conditions.
(§2) The cytotoxic activity of the compounds explored was investigated on human colorectal carcinoma (HCT116), breast cancer (MCF7), prostate adenocarcinoma (PC3), glioblastoma (U251), ovarian adenocarcinoma (Scov3), chronic myelogenous leukemia (K562 and K562/iS9), multiple plasmacytoma (AMO1), and acute lymphoblastic leukemia (H9) cell lines, as well as human embryonic kidney (HEK293) and mammary epithelial (HBL100 and HBL100/Dox) cells used as representatives of pseudonormal cells. All cell lines were obtained from American Type Culture Collection (ATCC). RPMI-1640 and DMEM media were obtained from Gibco. Fetal bovine serum (FBS) was purchased from HyClone. Cells were cultured in RPMI-1640 or DMEM media supplemented with 10% FBS and 50 μg/mL gentamicin in a humidified incubator with 5% CO2 atmosphere. The cell growth inhibitory effects of the compounds were evaluated using the conventional MTT assay (ICN Biomedicals, Eschwege, Germany). Cells were seeded in triplicate at a cell density of 5 × 10^3/well in 96-well plates in 100 µL complete medium and preincubated for 24 h. The tested compounds were initially dissolved in DMSO. Then, the compounds at various concentrations were added to the media. The well plates were incubated for 48 h followed by addition of MTT solution (Sigma, Darmstadt, Germany) (20 μL, 5 mg/mL). The cells were incubated at 37 °C for further 3 h; then the culture medium was removed, and formazan crystals were dissolved in DMSO (70 μL). The absorbance of the resulting solutions was measured on a multi-well plate reader (Multiskan FC, Thermo scientific) at 530 nm to determine the percentage of surviving cells. The reported values of IC50 are the averages of three independent experiments (Table 2 and Table 3). Cisplatin (in the initial form of an infusion concentrate in natural saline solution) from a commercial source was used as the reference.

[2] = tested on: AMO1 multiple plasmacytoma cells; test: MTT cytotoxicity assay, AMO1; type: cell-based, human; details: for IC50: AMO1, MTT, 48 h exposure, read-out: IC50 ± SD, AMO1
Protocol: as §1, §2

[3] = tested on: HBL100/Dox doxorubicin-resistant mammary epithelial cells; test: MTT cytotoxicity assay, HBL100/Dox; type: cell-based, human; details: for IC50: MTT, 48 h exposure, read-out: IC50 ± SD, HBL100/Dox
Protocol: as §1, §2

[4] = tested on: PC3 prostate adenocarcinoma cells; test: MTT cytotoxicity assay, PC3; type: cell-based, human; details: 48 h exposure, read-out: IC50 ± SD, PC3
Protocol: as §1, §2

[5] = tested on: HCT116 colorectal carcinoma cells; test: MTT cytotoxicity assay, HCT116; type: cell-based, human; details: read-out: IC50 ± SD, HCT116
Protocol: as §1, §2

[6] = tested on: Scov3 ovarian adenocarcinoma cells; test: MTT cytotoxicity assay, Scov3; type: cell-based, human; details: Scov3, MTT, 48 h exposure, read-out: IC50 ± SD, Scov3
Protocol: as §1, §2

[7] = tested on: HBL100 mammary epithelial cells; test: MTT cytotoxicity assay, HBL100; type: cell-based, human; details: read-out: IC50 ± SD, HBL100
Protocol: as §1, §2

[8] = tested on: HEK293 embryonic kidney cells; test: MTT cytotoxicity assay, HEK293; type: cell-based, human; details: HEK293 noncancerous cells, 48 h exposure, read-out: IC50 ± SD, HEK293
Protocol: as §1, §2

[9] = tested on: K562 chronic myelogenous leukemia cells; test: MTT cytotoxicity assay, K562; type: cell-based, human; details: 48 h exposure, read-out: IC50 ± SD, K562
Protocol: as §1, §2

U251 glioblastoma cells = test: MTT cytotoxicity assay, U251; type: cell-based, human; details: read-out: IC50 ± SD, U251
Protocol: as §1, §2

MCF7 breast cancer cells = test: MTT cytotoxicity assay, MCF7; type: cell-based, human; details: for IC50: MCF7, MTT, 48 h exposure, read-out: IC50 ± SD, MCF7
Protocol: as §1, §2

K562 cells = test: MTT assay with complexes preliminarily kept in DMSO–RPMI 1640, K562; type: cell-based, human; details: K562, kept in DMSO–RPMI 1640 (1/10 by volume) for 48 h before experiment, 72 h incubation
Protocol: (§3) The observed dependences correlate well with our previous findings on the lability of the phosphoryl sites in palladocycles 2a,b, 3a,b and can be rationalized in terms of their coordination behavior. […] However, the presence of an additional competitive chloride anion makes complex 2b potentially more susceptible to decoordination of the phosphoryl arm. […] At least the N,N-bidentately bound core remained intact in the mentioned media over a period of 48 h.
(§4) Figure S51. Effect of complexes 2b (a) and 3b (b) dissolved either in neat DMSO or DMSO–RPMI 1640 mixture on AMO1 and K562 cells (cell viability was defined by the conventional MTT assay according to the methodology described in the Experimental section with slight modifications: the complexes explored were preliminarily kept in neat DMSO or DMSO–RPMI 1640 mixture for 2 days before the experiments and the following incubation period […]

[10] = tested on: H9 acute lymphoblastic leukemia cells; test: MTT cytotoxicity assay, H9; type: cell-based, human; details: 48 h exposure, read-out: IC50 ± SD, H9
Protocol: as §1
as §2, with “Then, the compounds at various concentrations were added to the media. The well plates were incubated for 48 h followed by addition of MTT solution (Sigma, Darmstadt, Germany) (20 μL, 5 mg/mL). The cells were incubated at 37 °C for further 3 h; then the culture medium was removed, and formazan crystals were dissolved in DMSO (70 μL).” left out, “The reported values of IC50 are the averages of three independent experiments (Table 2 and Table 3). Cisplatin (in the initial form of an infusion concentrate in natural saline solution) from a commercial source was used as the reference.” left out

AMO1 cells = test: MTT assay with complexes preliminarily kept in DMSO–RPMI 1640, AMO1; type: cell-based, human; details: AMO1, kept in DMSO–RPMI 1640 (1/10 by volume) for 48 h before experiment, 72 h incubation
Protocol: as §3, §4

[11] = 31P NMR stability study in CDCl3–(CD3)2SO mixture; type: physicochemical; details: commensurable decomposition degree reached only in a week
Protocol: as §3

[12] = Solubility and stability in solvents (observation); type: physicochemical; details: for stability in DMSO: strongly coordinating media (DMSO)
From the text: To further explore the effect of lability of coordination sites on the biological activity of this type of cyclopalladated complexes, we decided to modify the second arm in the O,N,N-ligand framework, specifically the ancillary N-donor group, replacing the pyridine unit for a more rigid quinoline moiety. The reaction of [amino(phenyl)methyl]diphenylphosphine oxide hydrochloride with in situ generated quinoline-2-carboxylic acid chloride smoothly furnished functionalized amide 4, which, in turn, readily underwent direct cyclopalladation, affording Pd(II) pincer complex 5 (Scheme 4). The molecular structure of this palladocycle is presented in Figure 4, while its main geometric parameters are listed in Table S1 in the SI. Unfortunately, complex 5 appeared to be insoluble in common organic solvents and unstable in strongly coordinating media (e.g., DMSO); a possible reason for the stability issues is its highly constrained structure. Therefore, it was withdrawn from the cytotoxicity studies.
A solution of PdCl2(NCPh)2 (70 mg, 0.182 mmol) in CH2Cl2 (4 mL) was added dropwise to a solution of ligand 4 (84 mg, 0.182 mmol) and Et3N (26 μL, 0.186 mmol) in CH2Cl2 (6 mL). The reaction mixture was left under ambient conditions for 1 day and then filtered through a pad of cotton. The filtrate was evaporated to dryness. The resulting residue was washed with Et2O and purified by column chromatography on silica gel (eluent: CHCl3–EtOH (25:1)) to give 60 mg of the target pincer complex as a yellow crystalline solid. Yield: 55%. Mp: >175 °C (dec.). ^31P{^1H} NMR (161.98 MHz, CH2Cl2/D2O): δ 72.32 ppm (the ^1H and ^13C{^1H} NMR spectroscopic data for complex 5 were not obtained due to its low solubility in common organic solvents (e.g., chlorinated hydrocarbons and acetonitrile) and instability in strongly coordinating media (e.g., DMSO)). IR (KBr, ν/cm^–1): 521(w), 534(w), 561(s), 586(w), 699(m), 725(w), 766(w), 852(w), 927(vw), 998(w), 1024(m), 1042(m), 1121(m) (νP=O), 1154(w), 1341(w), 1378(br, m), 1437(m), 1461(w), 1493(w), 1516(w), 1560(w), 1595(w), 1633(s) (νC=O), 2923(vw), 3064(w). […]

| Structure (SMILES) | IC50 ([1]; 48 h exposure) [µM] | IC50 [2] [µM] | IC50 [3] [µM] | IC50 [4] [µM] | IC50 ([5]; 48 h exposure) [µM] | IC50 [6] [µM] | IC50 ([7]; 48 h exposure) [µM] | IC50 [8] [µM] | IC50 [9] [µM] | IC50 (U251 glioblastoma cells; 48 h exposure) [µM] | IC50 (MCF7 breast cancer cells) [µM] | stability in DMSO [12] | also measured |
| --- | --- | --- | --- | --- | --- | --- | --- | --- | --- | --- | --- | --- | --- |
| N.N.[Cl][Pt][Cl] [Cisplatin, reference compound] | 16 ± 2 | 3.2 ± 0.6 | 23.6 ± 3.6 | 16 ± 3 | 18 ± 2 | 21 ± 3 | 14.6 ± 3.6 | 12.5 ± 1.5 | 15.5 ± 0.5 | 16.5 ± 1.5 | 25 ± 4 | – | – |
| O=C(c1ccccn1)[N]([Pd][Cl])C(c1ccccc1)P(=O)(c1ccccc1)c1ccccc1 (stereo not drawn) [complex 3b, [κ^3-O,N,N-(L)Pd(II)Cl]] | 7.2 ± 1 | 2.7 ± 0.5 | 28 ± 2.6 | 16 ± 2 | 4 ± 2 | 40 ± 0.6 | 17.8 ± 0.8 | 12.5 ± 3.5 | 6.4 ± 0.4 | 43 ± 5 | 13 ± 1.5 | – | cytotoxic activity after keeping in DMSO–RPMI 1640 mixture vs neat DMSO (K562 cells): comparable; IC50 [10]: 3.2 ± 0.2 µM; cytotoxic activity after keeping in DMSO–RPMI 1640 mixture vs neat DMSO (AMO1 cells): comparable; stability in CDCl3–(CD3)2SO mixture [11]: quite stable |
| O=C(c1ccc2ccccc2n1)[N]([Pd][Cl])C(c1ccccc1)P(=O)(c1ccccc1)c1ccccc1 (stereo not drawn) [complex 5, [κ^3-O,N,N-(L)Pd(II)Cl]] | – | – | – | – | – | – | – | – | – | – | – | unstable | solubility in common organic solvents ([12]; common organic solvents): insoluble |
| O=C(c1cccc2cccnc12)[N](CP(=O)(c1ccccc1)c1ccccc1)[Pd][Cl] [complex 7, [κ^3-O,N,N-(L)Pd(II)Cl]] | – | – | – | 52 ± 10 | 38 ± 6 | – | – | 23 ± 3 | – | – | 58 ± 12 | stable | – |
| O=C(NCP(=O)(c1ccccc1)c1ccccc1)c1ccccn1 [ligand 1a, N-[(Diphenylphosphoryl)methyl]picolinamide] | – | – | – | – | – | – | – | – | – | – | – | – | IC50 ([1]; Homo sapiens, K562i/S9, 48 h exposure): > 80 µM; percentage of live cells ([2]; AMO1, compound concentration 80.0 μM, 48 h): 41% ^3; IC50 ([10]; Homo sapiens): > 80 µM; percentage of live cells ([3]; compound concentration 100.0 μM, 48 h): 35% ^3; IC50 ([4]; Homo sapiens): > 100 µM; IC50 ([5]; Homo sapiens, HCT-116, 48 h exposure): > 100 µM; IC50 ([6]; Homo sapiens): > 100 µM; IC50 ([7]; Homo sapiens, HBL-100, 48 h exposure): > 100 µM; IC50 ([8]; Homo sapiens): > 100 µM; IC50 ([9]; Homo sapiens): > 80 µM; IC50 (U251 glioblastoma cells; Homo sapiens, U-251, 48 h exposure): > 100 µM; percentage of live cells (MCF7 breast cancer cells; MCF7, compound concentration 100.0 μM, 48 h): 46% ^3 |
